According to US20250066366A1, “Crystal form of isobutyrate nucleoside compound, and preparation method” (Shenzhen AntiV Pharma Co., Ltd., priority 2021, published 2025):
Values after ≈ are worked out from the molar mass of the structure shown. Like-named read-outs stand apart in the source and are kept apart here. Marks after values point to notes of the source that are not given here.

Legend:
Type in all cases: physicochemical
[1] = Dynamic water vapor adsorption detection of crystalline form III
[2] = Grinding experiment of crystalline form III (XRPD after manual grinding); conditions: ground manually with mortar and pestle for 5 minutes
Description: (§1) X-ray powder diffraction patterns were collected on a PANalytical Empyrean X-ray diffractometer of the Netherlands equipped with a transmission-reflection sample stage with an automated 3*15 zero background sample holder. The radiation source used was (Cu, kα, Kα1 (Å): 1.540598; Kα2 (Å): 1.544426; Kα2/Kα1 intensity ratio: 0.50), wherein the voltage was set at 45 KV and the current was set at 40 mA. The beam divergence of the X-rays, i.e. the effective size of the X-ray confinement on the sample, was 6.6 mm. The continuous scanning mode of θ-θ was adopted, and an effective 2θ range of 3° to 40° was obtained. A proper amount of sample was placed at the position of the circular groove of the zero-background sample rack under the environmental condition (about 18° C. to 32° C.), the sample was lightly pressed with a clean glass slide to obtain a flat plane, and the zero-background sample rack was fixed. The samples were scanned at a scan step of 0.013° in the range of 3° to 40° 2θ±0.2° to obtain a traditional X-ray powder diffraction pattern.
Crystalline form III was ground manually with a mortar and pestle for 5 minutes, and XRPD of the ground solid was tested.

[3] = Solid state stability test (XRPD and HPLC); conditions: for Purity-1 week (Peak area %): HPLC, initial purity 99.71%; for Crystal-1 week: XRPD
Description: as §1
The instrument used for liquid chromatography analysis is Agilent HPLC 1260 series, which is used for the analysis of solid-state stability of samples.
A certain amount of crystalline form III of compound A as a sample was placed under conditions of 40° C./75% RH (open) and 60° C. (closed) for one week, and XRPD and HPLC of the sample were tested.

[4] = Solubility test in biological media (SGF, FaSSIF, FeSSIF) and water at 37° C.; conditions: for pH (24 h): solution pH after 24 h; for solubility at 0.5 h: read-out: Solubility (mg/mL) 0.5 h; for solubility at 2 h: read-out: Solubility (mg/mL) 2 h; for solubility at 24 h: read-out: Solubility (mg/mL) 24 h
Procedure: Crystalline form III has the highest solubility in SGF (>7 mg/mL). The solubility in pure water, FeSSIF, and FaSSIF were all greater than 1 mg/mL.

With `CC(C)C(=O)OC[C@H]1O[C@@](C#N)(c2ccc3c(N)ncnn23)[C@H](O)[C@@H]1O` [crystalline form III, ((2R,3S,4R,5R)-5-(4-aminopyrrolo[2,1-f][1,2,4]triazin-7-yl)-5-cyano-3,4-dihydroxytetrahydrofuran-2-yl) methyl isobutyrate] the weight gain ([1]; 80% RH and 25° C.) was “less than 0.2%”, the “crystalline form after testing” value ([1]; after dynamic water vapor adsorption test) was “did not change” and the hygroscopicity ([1]; dynamic water vapor adsorption test) was “does not have hygroscopicity”. For the same compound, the “crystalline structure after grinding (XRPD)” value [2] was “did not change”, the “Purity-1 week (Peak area %)” value ([3]; 40° C./75% RH, open, listed as Sample 1) was 99.68% and the “Purity-1 week (Peak area %)” value ([3]; 40° C./75% RH, open, listed as Sample 2) was 99.71%. The Crystal-1 week ([3]; 40° C./75% RH, open) was “No change”, the “Purity-1 week (Peak area %)” value ([3]; 60° C. & closed, listed as Sample 1) was 99.71% and the “Purity-1 week (Peak area %)” value ([3]; 60° C. & closed, listed as Sample 2) was 99.65%. The Crystal-1 week ([3]; 60° C. & closed) was “No change”, the “physical and chemical stability” value ([3]; two acceleration conditions (40° C./75% RH open, 60° C. closed) for 14 days) was “physically and chemically stable” and the “pH (24 h)” value ([4]; FaSSIF (pH = 6.53)) was 6.50. The “pH (24 h)” value ([4]; FeSSIF (pH = 4.97)) was 4.96, the “Solubility (mg/mL)” value ([4]; SGF (pH = 1.20), 0.5 h, 2 h, 24 h, visual observation) was >7* mg/mL and the “pH (24 h)” value ([4]; SGF (pH = 1.20)) was 1.37. For the same compound, the “change in solution pH after the solubility test” value ([4]; SGF, FaSSIF, FeSSIF and water) was “no significant change”, the “pH (24 h)” value ([4]; Water (pH = 6.67)) was 6.43 and the solubility ([4]; pH 1.2, simulated gastric fluid, thermodynamic from solid, SGF (pH = 1.20), 0.5 h, 2 h, 24 h, visual observation) was over 7 mg/mL. The solubility ([4]; pH 4.97, thermodynamic from solid, FeSSIF) was over 1 mg/mL, the solubility ([4]; pH 6.53, thermodynamic from solid, FaSSIF) was over 1 mg/mL and the solubility ([4]; pH 6.67, thermodynamic from solid, pure water) was over 1 mg/mL. For the same compound, the “XRPD (24 h)” value ([4]; solid after 24 h in FaSSIF (pH = 6.53)) was “Crystalline”, the “XRPD (24 h)” value ([4]; solid after 24 h in FeSSIF (pH = 4.97)) was “Crystalline” and the “XRPD (24 h)” value ([4]; solid after 24 h in Water (pH = 6.67)) was “Crystalline”. The solubility at 0.5 h ([4]; thermodynamic from solid, FaSSIF (pH = 6.53), 0.5 h) was 1.22 mg/mL (≈ 3.38 mM), the solubility at 2 h ([4]; thermodynamic from solid, FaSSIF (pH = 6.53), 2 h) was 1.26 mg/mL (≈ 3.49 mM) and the solubility at 24 h ([4]; thermodynamic from solid, FaSSIF (pH = 6.53), 24 h) was 1.19 mg/mL (≈ 3.29 mM). The solubility at 0.5 h ([4]; thermodynamic from solid, FeSSIF (pH = 4.97), 0.5 h) was 1.63 mg/mL (≈ 4.51 mM), the solubility at 2 h ([4]; thermodynamic from solid, FeSSIF (pH = 4.97), 2 h) was 1.66 mg/mL (≈ 4.59 mM) and the solubility at 24 h ([4]; thermodynamic from solid, FeSSIF (pH = 4.97), 24 h) was 1.68 mg/mL (≈ 4.65 mM). The solubility at 0.5 h ([4]; thermodynamic from solid, Water (pH = 6.67), 0.5 h) was 1.11 mg/mL (≈ 3.07 mM), the solubility at 2 h ([4]; thermodynamic from solid, Water (pH = 6.67), 2 h) was 1.22 mg/mL (≈ 3.38 mM) and the solubility at 24 h ([4]; thermodynamic from solid, Water (pH = 6.67), 24 h) was 1.24 mg/mL (≈ 3.43 mM).
